Experimental data: patent EP4817688A2, “DEGRADING PKCß1 TO TREAT CANCER” (Mayo Foundation for Medical Education and Research, priority 2020, dated 2022)

What was measured:
Type in all cases: cell-based
MDAMB436 cells = experiment: crystal violet (CV) proliferation assay, MDAMB436; details: Homo sapiens, MDA-MB-436, MDAMB436 (PKCβ1^low, Rb^negative) 2000 cells
Description: (§1) Cell proliferation rates were determined using crystal violet assays. One thousand cells per well were plated in 96 well tissue culture plates and treated the following day with a bifunctional compound or control for 7 days in replicates of 8. Cells were fixed with 25% glutaraldehyde for 10 minutes with shaking, washed 5 times with distilled water, stained with a 1% crystal violet solution (solubilized in 25% methanol) for 10 minutes, washed again 5 times and allowed to dry. De-staining was performed using […] sodium citrate in 50% ethanol followed by quantification using a 96 well spectrophotometer set at an absorbance of 550 nm.

KURAMOCHI cells = experiment: crystal violet (CV) proliferation assay, KURAMOCHI; details: KURAMOSHI (PKCβ1^low) 1000 cells/well; read-out: Approximate IC50
Description: as §1
Based on the potent anti-proliferative activity of ENDX-PROTACs TC-Pr-006, TC-Pr-007, TC-Pr -008, and TC-Pr -009 in TNBC cells, the efficacy of these compounds for inhibiting the growth of ovarian cancer cells was tested. This analysis utilized KURAMOCHI cells, which represent the high-grade serous subtype (the most malignant form that accounts for 70% of all ovarian cancers and associates with poor clinical outcome) and MDAH-2774 cells, which represent endometrioid ovarian cancer and accounts for 20% of all ovarian cancer. PKCβ1 was confirmed to be expressed in both ovarian cancer cell line models, with MDAH-2774 cells expressing higher amounts of PKCβ1 compared to KURAMOCHI cells (FIG. 5A). […]

[1] = test system: PKCβ1, E2F1, and Cyclin D1; experiment: western blot in BT549 and MDAMB436 cells (Example 6); details: 1 µM, 24, 48, and 72 hours
Description: TNBC BT549 and MDAMB436 cells were cultured in phenol-red free DMEM/F12 medium supplemented with 10% fetal bovine serum (FBS) and 1% AA. On day 1, cells were plated at a density of 2 x 10^5 BT549 cells or 4 x 10^5 MDAMB436 cells in a 6-well plate (two wells per treatment). The next day, cells were treated with DMSO, 1 µM Pr-9 (positive control), 1 µM Pr-9-1, 1 µM Pr-9-4, or 1 µM ENDX (negative control). Radioimmunoprecipitation Assay (RIPA) protein lysates were collected 24, 48, and 72 hours after treatment.
For western blot analysis, 25 µg of protein lysates were run on Criterion precast 10% Bis-Tris gel, transferred to PVDF membrane, incubated in TBST-5% milk for one hour, and then incubated overnight with PKCβ1 (SC8049, mouse, 1:200), E2F1 (SC251, mouse, 1:250), Cyclin D1 (CS2978, rabbit, 1:1000), or Actin (Sigma A2228, mouse, 1:10,000 or CS8457, rabbit, 1:2000) primary antibodies in TBST-5% BSA solution. Membranes were washed in TBS-T, incubated for one-hour in HRP-linked anti-rabbit or anti-mouse secondary antibodies in TBST-5% milk, and washed in TBS-T. Bands were developed using west-pico or west-femto chemiluminescent substrate reagents.

MDAMB231 cells = experiment: crystal violet (CV) proliferation assay, MDAMB231; details: Homo sapiens, MDA-MB-231, MDAMB231 (PKCβ1^high, Rb^positive) 2000 cells
Description: as §1

IC50 (MDAMB436 cells): 64 nM
IC50 (MDAMB231 cells): 131 nM
Structure (SMILES): CCC(=C(c1ccc(O)cc1)c1ccc(OCCN(C)C(=O)COCCOCCNC(=O)Cc2ccc3c(c2)CN(C2CCC(=O)NC2=O)C3=O)cc1)c1ccccc1 (centres unmarked) [TC-Pr-009, 2-[2-(2-2-[2-(2,6-dioxopiperidin-3-yl)-1-oxo-2,3-dihydro-1H-isoindol-5-yl]acetamidoethoxy)ethoxy]-N-(2-4-[1-(4-hydroxyphenyl)-2-phenylbut-1-en-1-yl]phenoxyethyl)-N-methylacetamide]
IC50 (KURAMOCHI cells): 1000 to 10000 nM
PKCβ1 protein levels [1]: altered to varying extent
protein levels of E2F1 and Cyclin D1 ([1]; listed as Pr-9): clearly reduced
